# Assays:
# [1] = test system: barnyardgrass; assay: Test A preemergence; type: in vivo, Echinochloa crus-galli; conditions: preemergence
# Method in brief: (§1)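 Growth medium: loam soil blended with sand. Preemergence treatment used a directed soil spray right after planting; postemergence treatment targeted seedlings at one to two leaves (2–10 cm height). Response was judged by eye relative to untreated plants about 10 days later on a 0–100 control scale.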
# [2] = test system: crabgrass, large; assay: Test A preemergence; type: in vivo, Digitaria sanguinalis; conditions: preemergence
# Method in brief: as §1
# [3] = test system: velvetleaf; assay: Test A preemergence; type: in vivo, Abutilon theophrasti; conditions: preemergence
# Method in brief: as §1
# [4] = test system: barnyardgrass; assay: Test A postemergence; type: in vivo, Echinochloa crus-galli
# Method in brief: as §1
# [5] = test system: crabgrass, large; assay: Test A postemergence; type: in vivo, Digitaria sanguinalis
# Method in brief: as §1
# [6] = test system: pigweed; assay: Test A postemergence; type: in vivo, Amaranthus retroflexus
# Method in brief: as §1
# [7] = test system: nutsedge, yellow; assay: Test C preemergence; type: in vivo, Cyperus esculentus
# Method in brief: (§2)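 Scores of 0 (no effect) to 100 (complete control) were assigned by eye after 13–15 days, comparing treated pots with controls. Soil-applied (preemergence) treatments went onto seeds in loam and sand; foliar (postemergence) treatments onto 1- to 4-leaf plants in peat medium.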
# [8] = test system: soybean; assay: Test C preemergence; type: in vivo, Glycine max
# Method in brief: as §2
# [9] = test system: oilseed rape; assay: Test C preemergence; type: in vivo, Brassica napus
# Method in brief: as §2
# [10] = test system: velvetleaf; assay: Test C preemergence; type: in vivo, Abutilon theophrasti
# Method in brief: as §2
# [11] = test system: wheat; assay: Test C postemergence; type: in vivo, Triticum aestivum; conditions: for Plant response rating, Wheat / Wheat plant response rating: postemergence; for Wheat plant response rating: scale 0 to 100
# Method in brief: as §2
# [12] = test system: corn; assay: Test C postemergence; type: in vivo, Zea mays; conditions: for Plant response rating (scale of 0 to 100 where 0 is no effect and 100 is complete control), Corn: Postemergence, 31 g ai/ha, visually evaluated after 13 to 15 days; for Corn plant response rating / Plant response rating, Corn: postemergence; for Corn plant response rating: 62 g ai/ha, scale 0 to 100
# Method in brief: as §2
# [13] = test system: soybean; assay: Test C postemergence; type: in vivo, Glycine max; conditions: for Plant response rating, Soybean / Soybean plant response rating: postemergence
# Method in brief: as §2
# [14] = test system: barnyardgrass; assay: Test C postemergence; type: in vivo, Echinochloa crus-galli; conditions: for Plant response rating (scale of 0 to 100 where 0 is no effect and 100 is complete control), Barnyardgrass: Postemergence, 31 g ai/ha, visually evaluated after 13 to 15 days; for Barnyardgrass plant response rating / Plant response rating, Barnyardgrass: postemergence; for Barnyardgrass plant response rating: 62 g ai/ha, scale 0 to 100
# Method in brief: as §2
# [15] = test system: oilseed rape; assay: Test C postemergence; type: in vivo, Brassica napus; conditions: for Oilseed Rape plant response rating / Plant response rating, Oilseed Rape: postemergence; for Oilseed Rape plant response rating: 62 g ai/ha, scale 0 to 100
# Method in brief: as §2
# [16] = test system: velvetleaf; assay: Test C postemergence; type: in vivo, Abutilon theophrasti; conditions: for Plant response rating, Velvetleaf / Velvetleaf plant response rating: postemergence; for Velvetleaf plant response rating: scale 0 to 100
# Method in brief: as §2
# [17] = 125 g ai/ha, visual injury, 0 to 100 scale, approx. 10 days
# [18] = 500 g ai/ha, visual injury after approx. 10 days, 0 to 100 scale (0 no effect, 100 complete control)
# [19] = 125 g ai/ha, visual injury approx. 10 days after treatment
# [20] = Postemergence, 500 g ai/ha, 0 to 100 scale (0 no effect, 100 complete control)
# [21] = postemergence, 125 g ai/ha, about 10 days, visual rating on 0 to 100 scale (0 no effect, 100 complete control)
# [22] = preemergence, 31 g ai/ha, visual rating, scale 0 to 100 (0 no effect, 100 complete control), 13 to 15 days
# [23] = preemergence, 62 g ai/ha, scale 0 to 100 (0 no effect, 100 complete control), 13 to 15 days
# [24] = preemergence, 125 g ai/ha, 13 to 15 days, scale 0 to 100, 0 = no effect, 100 = complete control
# [25] = preemergence, 250 g ai/ha, scale 0 to 100, 0 is no effect, 100 is complete control
# [26] = 250 g ai/ha, scale 0 to 100 (0 no effect, 100 complete control)
# [27] = 125 g ai/ha, scale 0 to 100, 0 no effect, 100 complete control
# [28] = Postemergence, 500 g ai/ha, visual rating after approx. 10 days, 0 to 100 scale (0 no effect, 100 complete control)
# [29] = preemergence, 125 g ai/ha, scale 0 to 100, 0 is no effect, 100 is complete control
# [30] = Postemergence, 31 g ai/ha, visually evaluated after 13 to 15 days
smiles,measurement,setting,value
CCOc1cc(C(=O)NOC(C)C)nn1Cc1ccnc(C(F)(F)F)c1 [Compound 153],Barnyardgrass plant response rating,[1]; [17],90
same,Barnyardgrass plant response rating,[1]; [18],100
same,"Crabgrass, Large plant response rating (0 to 100 scale)",[2]; [19],100
same,"Crabgrass, Large plant response rating",[2]; [18],100
same,Velvetleaf plant response rating (0 to 100 scale),[3]; [19],90
same,Velvetleaf plant response rating,[3]; [18],100
same,Barnyardgrass plant response rating,[4]; [20],100
same,Barnyardgrass plant response rating,[4]; [21],100
same,"Crabgrass, Large plant response rating",[5]; [20],100
same,"Crabgrass, Large plant response rating",[5]; [21],100
same,Pigweed plant response rating,[6]; [20],100
same,Pigweed plant response rating,[6]; [21],100
same,"Nutsedge, Yellow plant response rating",[7]; [22],20
same,"Nutsedge, Yellow plant response rating",[7]; [23],75
same,"Plant response rating, Nutsedge, Yellow",[7]; [24],85
same,"Nutsedge, Yellow plant response rating",[7]; [25],95
same,Soybean plant response rating,[8]; [22],5
same,Soybean plant response rating,[8]; [23],10
same,"Plant response rating, Soybean",[8]; [24],45
same,Soybean plant response rating,[8]; [25],80
same,Oilseed Rape plant response rating,[9]; [22],60
same,Oilseed Rape plant response rating,[9]; [23],95
same,"Plant response rating, Oilseed Rape",[9]; [24],95
same,Oilseed Rape plant response rating,[9]; [25],95
same,Velvetleaf plant response rating,[10]; [22],10
same,Velvetleaf plant response rating,[10]; [23],60
same,"Plant response rating, Velvetleaf",[10]; [24],90
same,Velvetleaf plant response rating,[10]; [25],100
same,"Plant response rating, Wheat",[11]; [26],15
same,Wheat plant response rating,[11],0
same,"Plant response rating (scale of 0 to 100 where 0 is no effect and 100 is complete control), Corn",[12],5
same,Corn plant response rating,[12],10
same,"Plant response rating, Corn",[12]; [26],20
same,"Plant response rating, Corn",[12]; [27],30
same,"Plant response rating, Soybean",[13]; [26],40
same,Soybean plant response rating,[13]; [27],35
same,"Plant response rating (scale of 0 to 100 where 0 is no effect and 100 is complete control), Barnyardgrass",[14],5
same,Barnyardgrass plant response rating,[14],10
same,"Plant response rating, Barnyardgrass",[14]; [26],15
same,"Plant response rating, Barnyardgrass",[14]; [27],10
same,Oilseed Rape plant response rating,[15],25
same,"Plant response rating, Oilseed Rape",[15]; [26],45
same,"Plant response rating, Oilseed Rape",[15]; [27],40
same,"Plant response rating, Velvetleaf",[16]; [26],65
same,Velvetleaf plant response rating,[16],30
"CCc1cc(C(=O)NCC(F)(F)F)nn1Cc1cc(C(F)(F)F)nn1C [Compound 108, 5-ethyl-1-[[1-methyl-3-(trifluoromethyl)-1H-pyrazole-5-yl]methyl]-N-(2,2,2-trifluoroethyl)-1H-pyrazole-3-carboxamide]",Barnyardgrass plant response rating,[1]; [17],90
same,Barnyardgrass plant response rating,[1]; [18],100
same,"Crabgrass, Large plant response rating",[2]; [17],100
same,"Crabgrass, Large plant response rating",[2]; [18],100
same,Velvetleaf plant response rating,[3]; [17],60
same,Velvetleaf plant response rating,[3]; [18],100
same,Barnyardgrass plant response rating,[4]; [28],90
same,Barnyardgrass plant response rating,[4]; [21],90
same,"Crabgrass, Large plant response rating",[5]; [28],100
same,"Crabgrass, Large plant response rating",[5]; [21],90
same,Pigweed plant response rating,[6]; [28],100
same,Pigweed plant response rating,[6]; [21],90
same,"Plant response rating (scale of 0 to 100), Nutsedge, Yellow","[7]; Preemergence, 250 g ai/ha",85
same,"Nutsedge, Yellow plant response rating",[7]; [22],5
same,"Nutsedge, Yellow plant response rating",[7]; [23],40
same,"Plant response rating (scale of 0 to 100), Soybean","[8]; Preemergence, 250 g ai/ha",98
same,Soybean plant response rating,[8]; [22],20
same,Soybean plant response rating,[8]; [23],90
same,Soybean plant response rating,[8]; [29],95
same,"Plant response rating (scale of 0 to 100), Oilseed Rape","[9]; Preemergence, 250 g ai/ha",100
same,Oilseed Rape plant response rating,[9]; [22],90
same,Oilseed Rape plant response rating,[9]; [23],98
same,Oilseed Rape plant response rating,[9]; [29],100
same,"Plant response rating (scale of 0 to 100), Velvetleaf","[10]; Preemergence, 250 g ai/ha",100
same,Velvetleaf plant response rating,[10]; [22],55
same,Velvetleaf plant response rating,[10]; [23],100
same,Velvetleaf plant response rating,[10]; [29],100
same,"Plant response rating (scale of 0 to 100 where 0 is no effect and 100 is complete control), Wheat",[11]; [30],0
same,Wheat plant response rating,[11]; 62 g ai/ha,5
same,"Plant response rating, Wheat",[11]; [26],20
same,"Plant response rating, Wheat",[11]; [27],10
same,"Plant response rating (scale of 0 to 100 where 0 is no effect and 100 is complete control), Corn",[12],5
same,Corn plant response rating,[12],5
same,"Plant response rating, Corn",[12]; [26],35
same,"Plant response rating, Corn",[12]; [27],15
same,"Plant response rating (scale of 0 to 100 where 0 is no effect and 100 is complete control), Soybean",[13]; [30],30
same,Soybean plant response rating,"[13]; 62 g ai/ha, scale 0 to 100",90
same,"Plant response rating, Soybean",[13]; [26],98
same,"Plant response rating, Soybean",[13]; [27],90
same,"Plant response rating (scale of 0 to 100 where 0 is no effect and 100 is complete control), Barnyardgrass",[14],0
same,Barnyardgrass plant response rating,[14],0
same,"Plant response rating, Barnyardgrass",[14]; [26],35
same,"Plant response rating, Barnyardgrass",[14]; [27],5
same,"Plant response rating (scale of 0 to 100 where 0 is no effect and 100 is complete control), Oilseed Rape",[15]; [30],50
same,Oilseed Rape plant response rating,[15],50
same,"Plant response rating, Oilseed Rape",[15]; [26],55
same,"Plant response rating, Oilseed Rape",[15]; [27],55
same,"Plant response rating (scale of 0 to 100 where 0 is no effect and 100 is complete control), Velvetleaf",[16]; [30],5
same,Velvetleaf plant response rating,[16]; 62 g ai/ha,10
same,"Plant response rating, Velvetleaf",[16]; [26],40
same,"Plant response rating, Velvetleaf",[16]; [27],35

# Reference: patent publication US20150105252A1, “SUBSTITUTED PYRAZOLES AS HERBICIDES” (E I DU PONT DE NEMOURS AND COMPANY, priority 2013, published 2015)
